The assay has as its system THP-1 dual reporter cells. Description: THP-1 dual reporter assay (ISRE and NF-κB promoter activity). Format: cell-based, human. Particulars: 5 μg/mL ADU-S100, 2 μM Compound 1 or 2, overnight. How it is done: THP1-Dual™ Cells lines were purchased from InvivoGen (WT (thpd-nfis) and STING-KO (thpd-kostg)) and cultured as recommended by manufacturer: in RPMI media (Gibco 22400-071) supplemented with 10% heat-inactivated Fetal Bovine Serum (FBS) (Gibco A38400-02) and 1× Pen-Strep-Glutamine (Gibco 10378-016). Cells were treated with selective antibiotic every other passage using 100 μg/ml Normocin™ (InvivoGen ant-nr-1), 10 μg/ml of blasticidin (InvivoGen ant-bl-05) and 100 μg/ml of Zeocin™ (InvivoGen ant-zn-05). THP1-Dual™ Cells (wild-type or STING-KO) were seeded at 1.5×10^5 cells/well in 96-well plates. Cells were treated with DMSO, 5 μg/mL ADU-S100, 2 μM Compound 1 or 2 or the combinations overnight. The next day, 10 μL of the media from the treated cells were mixed with 50 μL of QUANTI-Luc™ Gold (Invivogen rep-qlcg2) in a white 96-well plate (Thermo Scientific 9502887) to measure the interferon-sensitive response element (ISRE) promoter activity through Luciferase signal using a plate reader. For measuring NF-κB promoter activity, 10 μL of the media from the treated cells were mixed with 90 μL of QUANTI-Blue™ (Invivogen rep-qbs3) in white-96-well plates (Corning-Costar 3610), then incubated at 37° C. for one hour. The signal was then measured using a plate reader with detection at 640 nm wavelength.
A general note: In a reporter assay the amount or activity of a reporter protein is the signal.

Take `Nc1ncnc2c1ncn2[C@@H]1O[C@@H]2COP(=O)([S-])O[C@@H]3[C@H](O)[C@@H](COP([O-])(=S)O[C@H]2[C@H]1O)O[C@H]3n1cnc2c(N)ncnc21.[Na+].[Na+]` (some centres unmarked) [ADU-S100, reference compound]: the “ISRE activity (QUANTI-Luc)” value was “stimulates” and the “NFκB activity (QUANTI-Blue)” value is “stimulates”.

These data come from US20250127790A1, “COMBINATION THERAPY USING VPS34 INHIBITORS” (Deciphera Pharmaceuticals, LLC, priority 2021, published 2025).
